Reference: patent publication US6808876B1, “Cellular regulators of infectious agents and methods of use” (Immusol, Inc., priority 2000, dated 2004)

What was measured:
[1] = test system: HCV Core protein; conditions: for core protein expression, reduced to % of control RzBR1 transduced cells: GCV-resistant cells, remaining level relative to control RzBR1
Method: Upon construction of the retroviral vector pLHPM a cassette translating the HCV Core protein via the HCV IRES was placed into the 3′ part of the LTR transcript. Thereby, cells transduced with the library or single Rz candidates could be analyzed for the HCV Core protein expression by Western blotting. Western blotting was performed on protein lysates using an enhanced chemiluminescent blotting detection kit (Novex), and anti-HCV core monoclonal antibody (6C7 provided by Harry Greenberg, Stanford University). Blots were exposed to film and band intensities measured using a phosphoimager and ImageQuant software. […] Band volumes of HCV Core protein in Western blotting were analyzed by densitometry, normalized towards beta-actin and expressed as percentage relative to the control (RzBR1).

[2] = test system: LTR-Core and HSV-tk transcripts; experiment: Northern blotting of LTR-Core, HSV-tk and GAPDH transcripts; format: cell-based; conditions: normalized to GAPDH, relative to control Rz transduced 5′tk cells
Method: To assure that the observed reductions in Core protein were not caused by reduced levels of RNA transcript, Northern blotting analysis was performed on […] extracted from stable Rz expressors after GCV selection. Total RNA (15 μg per lane) extracted from cultures at 80% confluency was separated by formaldehyde/1% agarose gel electrophoresis and transferred to nylon membrane. The RNAs were probed for different parts of the two vector derived transcripts expressed in these cells: probes were directed against the tk part of the bicistronic transcript or against the Core portion of the retroviral vector transcript respectively. −^32P dCTP labelled probes were hybridized to the membrane in Quickhyb solution (Stratagene) at 65° C. After washing in 2×SSC/0.1%SDS and exposure to film, quantitation of signal was achieved by phosphimager analysis and computer-assisted denistometry as for the Western procedure. Levels of LTR-Core (4.8 kb) and HSV-tk (2.8 kb) transcripts were normalized to signals derived from GAPDH and expressed as percentage of the signal obtained from control Rz transduced 5′tk cells.

[3] = test system: HCV IRES; experiment: Ratio of Core protein to RNA transcript as indicator of HCV IRES translational activity; format: cell-based, Hepatitis C virus; conditions: GCV resistant colonies, compared with control Rz BR1
Description: However, to eliminate differences in expression of the retroviral transcript (harboring the 5′ UTR Core transcript) between different Rz vector transduced cells, we used the ratio between expressed Core protein and RNA transcript levels as an indicator of HCV IRES translational activity.

[4] = test system: HeLa 5′tk cells; experiment: GCV-mediated cell killing of HSV-tk expressing HeLa 5′tk cells; format: cell-based
Description: The Hela cell line used in these experiments was modified with a bicistronic reporter gene that confers hygromycin B resistance and GCV […]. The bicistronic reporter gene pHyg-5′tk was constructed with the SV40 promoter driving the expression of hygromycin B phosphotransferase and the 5′ untranslated region of HCV (nucleotides (nt) 38-341) upstream of HSV thymidine kinase (HSV-tk, see FIG. 1). The 5′ nontranslated region of hepatitis C virus (HCV) functions as an internal ribosome entry site (IRES) and is essential for translation of HCV proteins. Transcription of the 5′ nontranslated region allows for IRES-mediated translation of HSV-tk, which converts GCV to the monophosphate which is further metabolized to the triphosphate a cytotoxic analog of GTP. […]
Translation of HSV-tk-mediated by HCV 5′UTR (cap-independent, HCV nucleotides 38-341) was confirmed by Western blotting analysis of the tk protein. […] The functional activity of tk was determined by administration of GCV to the cell culture medium. […] To confirm that tk expression was mediated by HCV IRES and not from read-through translation of the hygromycin gene, two control plasmids were generated that were identical to the parental, except for deletion of part of the 5′UTR necessary for IRES function. […]

[5] = test system: untransfected HeLa cells; experiment: GCV application to untransfected HeLa cells or cells expressing Core protein in place of tk; format: cell-based; conditions: GCV 10-100 uM
Method: Translation of HSV-tk-mediated by HCV 5′UTR (cap-independent, HCV nucleotides 38-341) was confirmed by Western blotting analysis of the tk protein. The vector was designed such that the authentic HCV Core protein translation start site (AUG at position 342 of the viral RNA) serves as the translation initiation site for the tk gene. The functional activity of tk was determined by administration of GCV to the cell culture medium. […] To confirm that tk expression was mediated by HCV IRES and not from read-through translation of the hygromycin gene, two control plasmids were generated that were identical to the parental, except for deletion of part of the 5′UTR necessary for IRES function. A reporter cell line was generated by electroporation of HeLa cells with pHyg-5′tk and selected with 250 μg/ml hygromycin. Single cell clones of stable HSV-tk expressing cells (HeLa 5′tk cells) were obtained according to standard limited dilution cloning techniques and functionally characterized for GCV-mediated cell killing.

[6] = target: Herpes simplex virus thymidine kinase (HSV-tk) (Human herpesvirus 1, UniProt P0DTH5); conditions: cited from earlier work
Herpes simplex virus thymidine kinase (HSV-tk), sequence (P0DTH5 whole entry): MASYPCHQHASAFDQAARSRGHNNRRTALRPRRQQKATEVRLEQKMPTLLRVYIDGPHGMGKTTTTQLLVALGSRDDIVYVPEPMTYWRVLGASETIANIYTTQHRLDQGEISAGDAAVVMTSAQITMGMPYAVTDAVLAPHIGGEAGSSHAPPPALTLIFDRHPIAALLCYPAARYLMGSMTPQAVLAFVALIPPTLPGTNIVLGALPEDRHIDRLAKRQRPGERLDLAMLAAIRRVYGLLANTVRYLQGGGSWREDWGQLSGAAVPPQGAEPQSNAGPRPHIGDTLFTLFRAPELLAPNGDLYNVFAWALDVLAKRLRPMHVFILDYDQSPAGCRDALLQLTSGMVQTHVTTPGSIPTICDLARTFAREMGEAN

| Molecule | core protein expression, reduced to % of control RzBR1 transduced cells [1] | reduction of HCV IRES-dependent translatability (ratio Core protein/RNA transcript) [3] | better substrate for HSV-tk compared to mammalian tk [6] | also measured |
| --- | --- | --- | --- | --- |
| HCV8: hairpin ribozyme conferring GCV resistance, SEQ ID NO:54 (AGCCGAGGAGAATCCCACCAGAGAAACACACGTTGTGGTACATTACCTGGTA; chemistry not given here) |  |  |  | decrease (reduction) in Core protein compared to control Rz transduced cells ([1]; GCV resistant colonies, normalized to beta-actin, relative to control RzBR1): 95%; reduction of Core transcript [2]: 20% |
| HCV4: hairpin ribozyme, SEQ ID NO:50; binding sequence partially matches gamma subunit of human eIF2 (CTAACTTTAGAAACTAACCAGAGAAACACACGTTGTGGTACATTACCTGGTA; chemistry not given here) | 42% | 76% |  |  |
| Nc1nc(O)c2ncn(COC(CO)CO)c2n1 [GCV, [9-(1,3-dihydroxy-2-propoxy)methly] guanine] |  |  | about 1000 fold | cell death on continuous GCV application ([4]; continuous GCV 10-100 uM, HSV-tk expressing HeLa cells): complete cell death; GCV killing of selected HeLa 5′tk clone ([4]; exposure to 20 uM GCV): completely killed; effect of GCV application on tk-negative cells [5]: remained unaffected |
| HCV6: hairpin ribozyme, SEQ ID NO:52; targets human eIF2Bγ mRNA (TTCTTATTAGAAAGCTACCAGAGAAACACACGTTGTGGTACATTACCTGGTA; chemistry not given here) | 52% | 83% |  |  |
| O=c1[nH]c(=O)n([C@@H]2O[C@H](CO)[C@@H](O)[C@@H]2F)cc1I [FIAU, 1-(2″-deoxy-2′-fluoro-1-β-D-arabinofuranosyl-5-ido)uracil] |  |  | about 1000 fold |  |
